Reference: ChEMBL document CHEMBL1201862, “PubChem BioAssay data set” (2004)
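Exposure lasted 48 hours, with cells grown in 96-well plates and compounds tested at five concentrations. Abbreviation: GI50, concentration required for 50% inhibition of growth.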 The source made the active and inactive calls. Cut-off read from the data, not from the text of the source: active = GI50 up to about 1.1 µM and inactive = higher.

What was measured:
Assay in all cases: growth of human tumour cells (NCI), 48 h
SF-295 = tested on: SF-295
HT-29 = tested on: HT-29
KM12 = tested on: KM12
UO-31 = tested on: UO-31
CCRF-CEM = tested on: CCRF-CEM
NCI-H522 = tested on: NCI-H522
SK-MEL-28 = tested on: SK-MEL-28
SK-OV-3 = tested on: SK-OV-3
M14 = tested on: M14
Malme-3M = tested on: Malme-3M
SK-MEL-5 = tested on: SK-MEL-5
Hs-578T = tested on: Hs-578T
EKVX = tested on: EKVX
MOLT-4 = tested on: MOLT-4
COLO 205 = tested on: COLO 205
SNB-19 = tested on: SNB-19
HCT-116 = tested on: HCT-116
SF-268 = tested on: SF-268
ACHN = tested on: ACHN
UACC-257 = tested on: UACC-257
IGROV-1 = tested on: IGROV-1
SN12C = tested on: SN12C
U-251 = tested on: U-251
CAKI-1 = tested on: CAKI-1
NCI-H23 = tested on: NCI-H23
NCI-H226 = tested on: NCI-H226
SF-539 = tested on: SF-539
PC-3 = tested on: PC-3
TK-10 = tested on: TK-10
SK-MEL-2 = tested on: SK-MEL-2
T47D = tested on: T47D
HCC 2998 = tested on: HCC 2998
RPMI-8226 = tested on: RPMI-8226
A498 = tested on: A498
A549 = tested on: A549
MDA-MB-231 = tested on: MDA-MB-231
MDA-MB-435 = tested on: MDA-MB-435
786-0 = tested on: 786-0
MDA-N = tested on: MDA-N
DU-145 = tested on: DU-145
SNB-75 = tested on: SNB-75
SW-620 = tested on: SW-620
HOP-92 = tested on: HOP-92
HOP-62 = tested on: HOP-62
OVCAR-4 = tested on: OVCAR-4
RXF 393 = tested on: RXF 393
K562 = tested on: K562
MCF7 = tested on: MCF7
HL-60 = tested on: HL-60
NCI/ADR-RES = tested on: NCI/ADR-RES
LOX IMVI = tested on: LOX IMVI
OVCAR-3 = tested on: OVCAR-3
OVCAR-8 = tested on: OVCAR-8
OVCAR-5 = tested on: OVCAR-5
HCT-15 = tested on: HCT-15
SR = tested on: SR
NCI-H460 = tested on: NCI-H460
UACC-62 = tested on: UACC-62

Compound: CCCCCCCCCC(=O)CC(=O)c1c(O)cc(O)cc1O
- GI50 (SF-295): 25.9 µM (inactive)
- GI50 (HT-29): 17.1 µM (inactive)
- GI50 (KM12): 18.1 µM (inactive)
- GI50 (UO-31): 15.5 µM (inactive)
- GI50 (CCRF-CEM): 34.3 µM (inactive)
- GI50 (NCI-H522): 20.2 µM (inactive)
- GI50 (SK-MEL-28): 23.3 µM (inactive)
- GI50 (SK-OV-3): 35 µM (inactive)
- GI50 (M14): 17.1 µM (inactive)
- GI50 (Malme-3M): 14.4 µM (inactive)
- GI50 (SK-MEL-5): 15.3 µM (inactive)
- GI50 (Hs-578T): 18.5 µM (inactive)
- GI50 (EKVX): 31.5 µM (inactive)
- GI50 (MOLT-4): 12.9 µM (inactive)
- GI50 (COLO 205): 26.6 µM (inactive)
- GI50 (SNB-19): 22.6 µM (inactive)
- GI50 (HCT-116): 24.4 µM (inactive)
- GI50 (SF-268): 18.4 µM (inactive)
- GI50 (ACHN): 27 µM (inactive)
- GI50 (UACC-257): 23.4 µM (inactive)
- GI50 (IGROV-1): 26.5 µM (inactive)
- GI50 (SN12C): 20.6 µM (inactive)
- GI50 (U-251): 23.8 µM (inactive)
- GI50 (CAKI-1): 31.1 µM (inactive)
- GI50 (NCI-H23): 17.3 µM (inactive)
- GI50 (NCI-H226): 16.2 µM (inactive)
- GI50 (SF-539): 19.5 µM (inactive)
- GI50 (PC-3): 17.9 µM (inactive)
- GI50 (TK-10): 30.4 µM (inactive)
- GI50 (SK-MEL-2): 17.7 µM (inactive)
- GI50 (T47D): 34.7 µM (inactive)
- GI50 (HCC 2998): 18.8 µM (inactive)
- GI50 (RPMI-8226): 16.1 µM (inactive)
- GI50 (A498): 22.6 µM (inactive)
- GI50 (A549): 25.6 µM (inactive)
- GI50 (MDA-MB-231): 28.6 µM (inactive)
- GI50 (MDA-MB-435): 16.9 µM (inactive)
- GI50 (786-0): 28 µM (inactive)
- GI50 (MDA-N): 16.9 µM (inactive)
- GI50 (DU-145): 22.4 µM (inactive)
- GI50 (SNB-75): 22.2 µM (inactive)
- GI50 (SW-620): 25.6 µM (inactive)
- GI50 (HOP-92): 20 µM (inactive)
- GI50 (HOP-62): 13.6 µM (inactive)
- GI50 (OVCAR-4): 16.3 µM (inactive)
- GI50 (RXF 393): 11.7 µM (inactive)
- GI50 (K562): 15.2 µM (inactive)
- GI50 (MCF7): 39.1 µM (inactive)
- GI50 (HL-60): 17.9 µM (inactive)
- GI50 (NCI/ADR-RES): 16.6 µM (inactive)
- GI50 (LOX IMVI): 17.4 µM (inactive)
- GI50 (OVCAR-3): 16.4 µM (inactive)
- GI50 (OVCAR-8): 17.3 µM (inactive)
- GI50 (OVCAR-5): 19.4 µM (inactive)
- GI50 (HCT-15): 18.2 µM

Compound: CN(C)CCSC1=Nc2ccc(Cl)cc2C(c2ccccc2Cl)=NC1
- GI50 (Hs-578T): 18.6 µM (inactive)
- GI50 (MOLT-4): 33.3 µM (inactive)
- GI50 (MDA-MB-435): 13.8 µM (inactive)
- GI50 (SNB-75): 18.2 µM (inactive)
- GI50 (K562): 20.5 µM (inactive)
- GI50 (HL-60): 19.3 µM (inactive)

Compound: O=C1C=CC2(C=C1)CCNC1=C2C(=O)c2[nH]cnc2C1=O
- GI50 (Malme-3M): 2.26 µM (inactive)
- GI50 (SNB-19): 13.9 µM (inactive)
- GI50 (IGROV-1): 15.2 µM (inactive)

Compound: Cc1ccc(S(=O)(=O)N/N=c2/sc3ccccc3n2C)cc1
- GI50 (SF-295): > 100 µM (inactive)
- GI50 (HT-29): > 100 µM (inactive)
- GI50 (KM12): > 100 µM (inactive)
- GI50 (UO-31): > 100 µM (inactive)
- GI50 (CCRF-CEM): > 100 µM (inactive)
- GI50 (NCI-H522): 33.7 µM (inactive)
- GI50 (SK-MEL-28): > 100 µM (inactive)
- GI50 (SK-OV-3): > 100 µM (inactive)
- GI50 (Malme-3M): > 100 µM (inactive)
- GI50 (SK-MEL-5): > 100 µM (inactive)
- GI50 (Hs-578T): > 100 µM (inactive)
- GI50 (EKVX): > 100 µM (inactive)
- GI50 (MOLT-4): > 100 µM (inactive)
- GI50 (SR): > 100 µM (inactive)
- GI50 (COLO 205): > 100 µM (inactive)
- GI50 (NCI-H460): > 100 µM (inactive)
- GI50 (SNB-19): > 100 µM (inactive)
- GI50 (HCT-116): > 100 µM (inactive)
- GI50 (SF-268): > 100 µM (inactive)
- GI50 (ACHN): > 100 µM (inactive)
- GI50 (UACC-257): > 100 µM (inactive)
- GI50 (IGROV-1): > 100 µM (inactive)
- GI50 (SN12C): > 100 µM (inactive)
- GI50 (U-251): > 100 µM (inactive)
- GI50 (CAKI-1): > 100 µM (inactive)
- GI50 (NCI-H23): > 100 µM (inactive)
- GI50 (NCI-H226): > 100 µM (inactive)
- GI50 (SF-539): > 100 µM (inactive)
- GI50 (PC-3): > 100 µM (inactive)
- GI50 (TK-10): > 100 µM (inactive)
- GI50 (SK-MEL-2): > 100 µM (inactive)
- GI50 (T47D): > 100 µM (inactive)
- GI50 (HCC 2998): > 100 µM (inactive)
- GI50 (RPMI-8226): > 100 µM (inactive)
- GI50 (A498): > 100 µM (inactive)
- GI50 (A549): > 100 µM (inactive)
- GI50 (MDA-MB-231): > 100 µM (inactive)
- GI50 (MDA-MB-435): > 100 µM (inactive)
- GI50 (786-0): > 100 µM (inactive)
- GI50 (DU-145): > 100 µM (inactive)
- GI50 (SNB-75): > 100 µM (inactive)
- GI50 (SW-620): > 100 µM (inactive)
- GI50 (HOP-92): > 100 µM (inactive)
- GI50 (HOP-62): > 100 µM (inactive)
- GI50 (OVCAR-4): > 100 µM (inactive)
- GI50 (RXF 393): > 100 µM (inactive)
- GI50 (K562): > 100 µM (inactive)
- GI50 (HL-60): > 100 µM (inactive)
- GI50 (NCI/ADR-RES): > 100 µM (inactive)
- GI50 (LOX IMVI): > 100 µM (inactive)
- GI50 (UACC-62): > 100 µM (inactive)
- GI50 (OVCAR-8): > 100 µM (inactive)
- GI50 (OVCAR-5): > 100 µM (inactive)
- GI50 (HCT-15): > 100 µM
